# Laboratory results as given in patent publication US20100267561A1, “HERBICIDAL PYRIDAZINONE DERIVATIVES” (priority 2007, published 2010).
# Columns and labels:
# Assay type in all cases: in vivo
# [1] = test system: barnyardgrass (Echinochloa crus-galli); test: Test A pre-/postemergence plant response
# Summary of the method: (§1)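 Seeds were planted in blended loam soil and sand, then treated preemergence by directed soil spray. At that time, emerged plants (one- to two-leaf, 2–10 cm) received postemergence applications of the same surfactant-containing formulation. Injury was assessed visually on a 0–100 scale after approximately 10 days.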
# corn (Zea mays) = test: Test A pre-/postemergence plant response
# Summary of the method: as §1
# [2] = test system: giant foxtail (Setaria faberi); test: Test A pre-/postemergence plant response
# Summary of the method: as §1
# [3] = test system: large crabgrass (Digitaria sanguinalis); test: Test A pre-/postemergence plant response
# Summary of the method: as §1
# [4] = test system: morningglory (Ipomoea coccinea); test: Test A pre-/postemergence plant response
# Summary of the method: as §1
# [5] = test system: pigweed (Amaranthus retroflexus); test: Test A pre-/postemergence plant response
# Summary of the method: as §1
# [6] = test system: velvetleaf (Abutilon theophrasti); test: Test A pre-/postemergence plant response
# Summary of the method: as §1
# [7] = test system: wheat (Triticum aestivum); test: Test A pre-/postemergence plant response
# Summary of the method: as §1
# [8] = test system: eastern black (E.B.) nightshade (Solanum ptycanthum); test: Test B pre-/postemergence plant response; details: Preemergence
# Summary of the method: (§2)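 Seeds were sown and sprayed preemergence, while plants at 2 to 18 cm (1- to 4-leaf stage) got postemergence sprays. Compounds were formulated in a non-phytotoxic solvent mixture with surfactant. After 13 to 15 days in a greenhouse, injury was rated visually against untreated controls, 0 (no effect) to 100 (complete control).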
# [9] = test system: green foxtail (Setaria viridis); test: Test B pre-/postemergence plant response; details: for Foxtail, Green plant response rating: 8 g ai/ha
# Summary of the method: as §2
# [10] = test system: barnyardgrass (Echinochloa crus-galli); test: Test B flooded paddy test plant response
# Summary of the method: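 Paddy-water application to 2-leaf plants in pots held under 3 cm of flooding; response is a 0–100 visual control rating against controls after 13 to 15 days, and a dash marks a missing result.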
# [11] = Postemergence, 125 g ai/ha, 0 to 100 scale, 0 no effect, 100 complete control
# [12] = Postemergence, 500 g ai/ha, 0 to 100 scale, 0 no effect, 100 complete control
# [13] = Preemergence, 125 g ai/ha, 0 to 100 scale (0 no effect, 100 complete control)
# [14] = Preemergence, 500 g ai/ha, 0 to 100 scale (0 no effect, 100 complete control)
smiles,measurement,setting,value
CCc1cc(-c2ccc(C(F)(F)F)cc2)nn1-c1c(OS(C)(=O)=O)cnn(C)c1=O [Compound 19],"Plant response rating, Barnyardgrass",[1]; [11],100
same,"Plant response rating, Barnyardgrass",[1]; [12],100
same,"Plant response rating, Barnyardgrass",[1]; [13],100
same,"Plant response rating, Barnyardgrass",[1]; [14],100
same,"Plant response rating, Corn",corn (Zea mays); [11],90
same,"Plant response rating, Corn",corn (Zea mays); [12],90
same,"Plant response rating, Corn",corn (Zea mays); [13],80
same,"Plant response rating, Corn",corn (Zea mays); [14],90
same,"Plant response rating, Foxtail, Giant",[2]; [11],100
same,"Plant response rating, Foxtail, Giant",[2]; [12],100
same,"Plant response rating, Foxtail, Giant",[2]; [13],100
same,"Plant response rating, Foxtail, Giant",[2]; [14],100
same,"Plant response rating, Crabgrass, Large",[3]; [11],90
same,"Plant response rating, Crabgrass, Large",[3]; [12],100
same,"Plant response rating, Crabgrass, Large",[3]; [13],100
same,"Plant response rating, Crabgrass, Large",[3]; [14],100
same,"Plant response rating, Morningglory",[4]; [11],0
same,"Plant response rating, Morningglory",[4]; [12],0
same,"Plant response rating, Morningglory",[4]; [13],0
same,"Plant response rating, Morningglory",[4]; [14],0
same,"Plant response rating, Pigweed",[5]; [11],0
same,"Plant response rating, Pigweed",[5]; [12],0
same,"Plant response rating, Pigweed",[5]; [13],0
same,"Plant response rating, Pigweed",[5]; [14],0
same,"Plant response rating, Velvetleaf",[6]; [11],0
same,"Plant response rating, Velvetleaf",[6]; [12],0
same,"Plant response rating, Velvetleaf",[6]; [13],0
same,"Plant response rating, Velvetleaf",[6]; [14],0
same,"Plant response rating, Wheat",[7]; [11],60
same,"Plant response rating, Wheat",[7]; [12],90
same,"Plant response rating, Wheat",[7]; [13],90
same,"Plant response rating, Wheat",[7]; [14],100
same,"Plant response rating, Nightshade, E. B.","[8]; 16 g ai/ha, scale 0 to 100 (0 no effect, 100 complete control)",0
same,"Plant response rating, Nightshade, E. B.","[8]; 62 g ai/ha, scale 0 to 100",0
same,"Nightshade, E. B. plant response rating","[8]; 8 g ai/ha, scale 0 to 100",0
same,"Foxtail, Green plant response rating","[9]; postemergence, 0-100 scale",60
same,"Plant response rating, Foxtail, Green","[9]; Postemergence, 16 g ai/ha, scale 0 to 100",100
same,"Plant response rating, Foxtail, Green","[9]; Postemergence, 31 g ai/ha, scale 0 to 100, 0 no effect, 100 complete control",100
same,"Plant response rating, Foxtail, Green","[9]; Postemergence, 62 g ai/ha, scale 0 to 100",100
same,"Plant response rating, Foxtail, Green","[9]; Preemergence, 16 g ai/ha, scale 0 to 100 (0 no effect, 100 complete control)",100
same,"Plant response rating, Foxtail, Green","[9]; Preemergence, 31 g ai/ha, 0 to 100 scale, 0 no effect, 100 complete control",100
same,"Plant response rating, Foxtail, Green","[9]; Preemergence, 62 g ai/ha, scale 0 to 100",100
same,"Foxtail, Green plant response rating","[9]; Preemergence, scale 0 to 100",85
same,"Plant response rating, Barnyardgrass","[10]; Flood (flooded paddy test), 62 g ai/ha, scale 0 to 100, 0 no effect, 100 complete control",30
same,"Plant response rating, Barnyardgrass","[10]; Flood (flooded paddy test), 125 g ai/ha, scale 0 to 100, 0 no effect, 100 complete control",60
same,"Plant response rating, Barnyardgrass","[10]; Flood (flooded paddy test), 250 g ai/ha, scale 0 to 100, 0 no effect, 100 complete control",75
same,"Plant response rating, Barnyardgrass","[10]; Flood, 31 g ai/ha, scale 0 to 100",0
